Tests used:
[1] = compound: CC(=O)c1c(C)c2cnc(Nc3ccc(N4CCNCC4)cn3)nc2n(C2CCCC2)c1=O; assay: increase in dead-cell fraction, 72 h; higher = more death;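 further: breast cancer cell lines in 384-well plates, stained with Hoechst plus LIVE/DEAD far red dye and imaged, cells above an LDR intensity threshold counted dead, Hoechst-negative corpses included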
[2] = compound: CCN1CCN(Cc2ccc(Nc3ncc(F)c(-c4cc(F)c5nc(C)n(C(C)C)c5c4)n3)nc2)CC1; assay: as above
LEE011/Ribociclib [3] = compound: T1, CN(C)C(=O)c1cc2cnc(Nc3ccc(N4CCNCC4)cn3)nc2n1C1CCCC1 [LEE011/Ribociclib]; assay: as above
Flavopiridol [4] = compound: T2, CN1CC[C@H](c2c(O)cc(O)c3c(=O)cc(-c4ccccc4Cl)oc23)[C@H](O)C1 [Flavopiridol]; assay: as above
BSJ-03-123 = compound: CC(=O)c1c(C)c2cnc(Nc3ccc(N4CCN(CCOCCOCCOCCNC(=O)COc5cccc6c5C(=O)N(C5CCC(=O)NC5=O)C6=O)CC4)cn3)nc2n(C2CCCC2)c1=O [BSJ-03-123]; assay: GR value, 72 h; higher = faster growth (1 = untreated, <0 = killing);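 further: breast cancer and non-malignant breast epithelial lines, nine half-log doses, viable cells counted by Hoechst and LIVE/DEAD dye imaging versus time-zero plates and DMSO controls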
[5] = compound: CC(=O)c1c(C)c2cnc(Nc3ccc(N4CCNCC4)cn3)nc2n(C2CCCC2)c1=O; assay: as above
[6] = compound: CCN1CCN(Cc2ccc(Nc3ncc(F)c(-c4cc(F)c5nc(C)n(C(C)C)c5c4)n3)nc2)CC1; assay: as above
Neratinib/HKI272 = compound: CCOc1cc2ncc(C#N)c(Nc3ccc(OCc4ccccn4)c(Cl)c3)c2cc1NC(=O)/C=C/CN(C)C [Neratinib/HKI272]; assay: as above
[7] = compound: CCc1cnn2c(NCc3ccc[n+]([O-])c3)cc(N3CCCC[C@H]3CCO)nc12; assay: as above
LEE011/Ribociclib [8] = compound: T1, LEE011/Ribociclib; assay: as above
THZ1 = compound: CN(C)C/C=C/C(=O)Nc1ccc(C(=O)Nc2cccc(Nc3ncc(Cl)c(-c4c[nH]c5ccccc45)n3)c2)cc1 [THZ1]; assay: as above
Flavopiridol [9] = compound: T2, Flavopiridol; assay: as above

HCC38
increase in dead-cell fraction ([1]; 0.0003162 µM): 0.0028
increase in dead-cell fraction ([1]; 0.001 µM): -0.0069
increase in dead-cell fraction ([1]; 0.003162 µM): 0.0044
increase in dead-cell fraction ([1]; 0.01 µM): 0.0202
increase in dead-cell fraction ([1]; 0.03162 µM): 0.0549
increase in dead-cell fraction ([1]; 0.1 µM): 0.0669
increase in dead-cell fraction ([1]; 0.3162 µM): 0.0676
increase in dead-cell fraction ([1]; 1 µM): 0.0915
increase in dead-cell fraction ([1]; 3.162 µM): 0.0488
increase in dead-cell fraction ([2]; 0.001 µM): 0.0177
increase in dead-cell fraction ([2]; 0.003162 µM): 0.0096
increase in dead-cell fraction ([2]; 0.01 µM): 0.0258
increase in dead-cell fraction ([2]; 0.03162 µM): 0.0545
increase in dead-cell fraction ([2]; 0.1 µM): 0.0758
increase in dead-cell fraction ([2]; 0.3162 µM): 0.0601
increase in dead-cell fraction ([2]; 1 µM): 0.0699
increase in dead-cell fraction ([2]; 3.162 µM): 0.0988
increase in dead-cell fraction ([2]; 10 µM): 0.415
increase in dead-cell fraction (LEE011/Ribociclib [3]; 0.001 µM): -0.0042
increase in dead-cell fraction (LEE011/Ribociclib [3]; 0.003162 µM): 0.0013
increase in dead-cell fraction (LEE011/Ribociclib [3]; 0.01 µM): 0.0118
increase in dead-cell fraction (LEE011/Ribociclib [3]; 0.03162 µM): 0.0031
increase in dead-cell fraction (LEE011/Ribociclib [3]; 0.1 µM): 0.0263
increase in dead-cell fraction (LEE011/Ribociclib [3]; 0.3162 µM): 0.0209
increase in dead-cell fraction (LEE011/Ribociclib [3]; 1 µM): 0.026
increase in dead-cell fraction (LEE011/Ribociclib [3]; 3.162 µM): 0.0204
increase in dead-cell fraction (LEE011/Ribociclib [3]; 10 µM): 0.0467
increase in dead-cell fraction (Flavopiridol [4]; 0.0001 µM): -0.0026
increase in dead-cell fraction (Flavopiridol [4]; 0.0003162 µM): -0.0024
increase in dead-cell fraction (Flavopiridol [4]; 0.001 µM): -0.0081
increase in dead-cell fraction (Flavopiridol [4]; 0.003162 µM): 0.0129
increase in dead-cell fraction (Flavopiridol [4]; 0.01 µM): 0.0083
increase in dead-cell fraction (Flavopiridol [4]; 0.03162 µM): 0.0066
increase in dead-cell fraction (Flavopiridol [4]; 0.1 µM): 0.0013
increase in dead-cell fraction (Flavopiridol [4]; 0.3162 µM): 0.112
increase in dead-cell fraction (Flavopiridol [4]; 1 µM): 0.449
GR value (BSJ-03-123; 0.001 µM): 0.699 GR
GR value (BSJ-03-123; 0.003162 µM): 0.719 GR
GR value (BSJ-03-123; 0.01 µM): 0.468 GR
GR value (BSJ-03-123; 0.03162 µM): 0.463 GR
GR value (BSJ-03-123; 0.1 µM): 0.454 GR
GR value (BSJ-03-123; 0.3162 µM): 0.419 GR
GR value (BSJ-03-123; 1 µM): 0.341 GR
GR value (BSJ-03-123; 3.162 µM): 0.306 GR
GR value (BSJ-03-123; 10 µM): -0.0958 GR
GR value ([5]; 0.0003162 µM): 1.03 GR
GR value ([5]; 0.001 µM): 1.06 GR
GR value ([5]; 0.003162 µM): 0.926 GR
GR value ([5]; 0.01 µM): 0.889 GR
GR value ([5]; 0.03162 µM): 0.604 GR
GR value ([5]; 0.1 µM): 0.398 GR
GR value ([5]; 0.3162 µM): 0.31 GR
GR value ([5]; 1 µM): 0.239 GR
GR value ([5]; 3.162 µM): 0.133 GR
GR value ([6]; 0.001 µM): 0.924 GR
GR value ([6]; 0.003162 µM): 0.846 GR
GR value ([6]; 0.01 µM): 0.738 GR
GR value ([6]; 0.03162 µM): 0.452 GR
GR value ([6]; 0.1 µM): 0.275 GR
GR value ([6]; 0.3162 µM): 0.206 GR
GR value ([6]; 1 µM): 0.122 GR
GR value ([6]; 3.162 µM): -0.0767 GR
GR value ([6]; 10 µM): -0.335 GR
GR value (Neratinib/HKI272; 0.0003162 µM): 1.02 GR
GR value (Neratinib/HKI272; 0.001 µM): 1.03 GR
GR value (Neratinib/HKI272; 0.003162 µM): 0.987 GR
GR value (Neratinib/HKI272; 0.01 µM): 0.96 GR
GR value (Neratinib/HKI272; 0.03162 µM): 0.879 GR
GR value (Neratinib/HKI272; 0.1 µM): 0.951 GR
GR value (Neratinib/HKI272; 0.3162 µM): 0.823 GR
GR value (Neratinib/HKI272; 1 µM): 0.846 GR
GR value (Neratinib/HKI272; 3.162 µM): 0.456 GR
GR value ([7]; 0.0001 µM): 0.989 GR
GR value ([7]; 0.0003162 µM): 1.05 GR
GR value ([7]; 0.001 µM): 1.05 GR
GR value ([7]; 0.003162 µM): 1.14 GR
GR value ([7]; 0.01 µM): 0.761 GR
GR value ([7]; 0.03162 µM): -0.374 GR
GR value ([7]; 0.1 µM): -0.453 GR
GR value ([7]; 0.3162 µM): -0.435 GR
GR value ([7]; 1 µM): -0.453 GR
GR value (LEE011/Ribociclib [8]; 0.001 µM): 0.807 GR
GR value (LEE011/Ribociclib [8]; 0.003162 µM): 0.769 GR
GR value (LEE011/Ribociclib [8]; 0.01 µM): 0.692 GR
GR value (LEE011/Ribociclib [8]; 0.03162 µM): 0.727 GR
GR value (LEE011/Ribociclib [8]; 0.1 µM): 0.577 GR
GR value (LEE011/Ribociclib [8]; 0.3162 µM): 0.511 GR
GR value (LEE011/Ribociclib [8]; 1 µM): 0.532 GR
GR value (LEE011/Ribociclib [8]; 3.162 µM): 0.4 GR
GR value (LEE011/Ribociclib [8]; 10 µM): 0.239 GR
GR value (THZ1; 0.0001 µM): 1.1 GR
GR value (THZ1; 0.0003162 µM): 1.05 GR
GR value (THZ1; 0.001 µM): 1.05 GR
GR value (THZ1; 0.003162 µM): 0.951 GR
GR value (THZ1; 0.01 µM): 0.724 GR
GR value (THZ1; 0.03162 µM): 0.452 GR
GR value (THZ1; 0.1 µM): -0.224 GR
GR value (THZ1; 0.3162 µM): -0.367 GR
GR value (THZ1; 1 µM): -0.572 GR
GR value (Flavopiridol [9]; 0.0001 µM): 0.986 GR
GR value (Flavopiridol [9]; 0.0003162 µM): 0.927 GR
GR value (Flavopiridol [9]; 0.001 µM): 0.962 GR
GR value (Flavopiridol [9]; 0.003162 µM): 0.855 GR
GR value (Flavopiridol [9]; 0.01 µM): 0.897 GR
GR value (Flavopiridol [9]; 0.03162 µM): 0.814 GR
GR value (Flavopiridol [9]; 0.1 µM): 0.591 GR
GR value (Flavopiridol [9]; 0.3162 µM): 0.182 GR
GR value (Flavopiridol [9]; 1 µM): -0.439 GR

— the supplement of paper PMC9663587
